Measurements: publication PMC4769088, “Antifungal Activity and Action Mechanism of Histatin 5-Halocidin Hybrid Peptides against Candida ssp” (PLoS ONE, 2016)
Values after ≈ are worked out from the molar mass of the structure shown. Where a SMILES comes first, the peptide text is derived from it. Bridges are numbered along the chain shown (N, C = ends). Roman numbers before positions name the chains, in order.

Legend:
[1] = tested on: L929 cells; assay: Cytotoxic activity (WST-1 cell viability assay); format: cell-based, mouse; conditions: 24 h treatment, WST-1, OD 460 nm
Description: The cytotoxicity of hybrid peptides was evaluated in mouse […] cells (L929, Korean Collection for Type Cultures, KCTC). L929 cells in RPMI1640-10% FBS (100 μL, 3 × 10^5 cells/ml) were seeded in 96-well plates and cultured at 37°C for 24 h in a 5% CO2 incubator. The L929 cells were treated with peptides at predetermined concentrations for 24 h, and 10 μl of EZ-Cytox Cell Viability Assay solution WST-1® (Daeil Lab Service, Korea) were added to each well. Three hours later, the cytotoxicity of peptides against L929 cells was assessed by measuring the optical density at 460 nm using a Perkin Elmer 2030 Reader (Victor X3).

[2] = tested on: all tested Candida strains; format: cell-based; conditions: 4 h

MIC values [2] | SMILES | CC50 [1]
– | CC(C)C[C@H](NC(=O)CNC(=O)[C@H](Cc1c[nH]cn1)NC(=O)[C@H](Cc1c[nH]cn1)NC(=O)[C@H](CC(C)C)NC(=O)[C@H](CC(C)C)NC(=O)[C@H](C)NC(=O)[C@H](CC(N)=O)NC(=O)[C@H](CC(C)C)NC(=O)[C@@H](N)Cc1c[nH]c2ccccc12)C(=O)N[C@@H](CC(N)=O)C(=O)N[C@@H](CSSC[C@H](NC(=O)[C@H](CC(N)=O)NC(=O)[C@H](CC(C)C)NC(=O)CNC(=O)[C@H](Cc1c[nH]cn1)NC(=O)[C@H](Cc1c[nH]cn1)NC(=O)[C@H](CC(C)C)NC(=O)[C@H](CC(C)C)NC(=O)[C@H](C)NC(=O)[C@H](CC(N)=O)NC(=O)[C@H](CC(C)C)NC(=O)[C@@H](N)Cc1c[nH]c2ccccc12)C(=O)N[C@@H](C)C(=O)N[C@@H](CCCCN)C(=O)NCC(=O)N[C@H](C(=O)N[C@@H](CC(C)C)C(=O)N[C@@H](C)C(N)=O)C(C)C)C(=O)N[C@@H](C)C(=O)N[C@@H](CCCCN)C(=O)NCC(=O)N[C@H](C(=O)N[C@@H](CC(C)C)C(=O)N[C@@H](C)C(N)=O)C(C)C [di-18Hc, reference compound] (I: H-WLNALLHHGLNCAKGVLA-NH2 / II: H-WLNALLHHGLNCAKGVLA-NH2; disulfide I:12-II:12 (inferred); N-terminus assumed) | 72.385 µg/mL (≈ 18.8 µM)
1 to 2 µg/mL | CC(C)C[C@H](NC(=O)CNC(=O)[C@H](Cc1c[nH]cn1)NC(=O)[C@H](Cc1c[nH]cn1)NC(=O)[C@H](CCCNC(=N)N)NC(=O)[C@H](CCCCN)NC(=O)[C@H](C)N)C(=O)N[C@@H](CC(N)=O)C(=O)N[C@@H](CSSC[C@H](NC(=O)[C@H](CC(N)=O)NC(=O)[C@H](CC(C)C)NC(=O)CNC(=O)[C@H](Cc1c[nH]cn1)NC(=O)[C@H](Cc1c[nH]cn1)NC(=O)[C@H](CCCNC(=N)N)NC(=O)[C@H](CCCCN)NC(=O)[C@H](C)N)C(=O)N[C@@H](C)C(=O)N[C@@H](CCCCN)C(=O)N[C@@H](Cc1ccccc1)C(=O)N[C@@H](Cc1c[nH]cn1)C(N)=O)C(=O)N[C@@H](C)C(=O)N[C@@H](CCCCN)C(=O)N[C@@H](Cc1ccccc1)C(=O)N[C@@H](Cc1c[nH]cn1)C(N)=O [di-PH2] (I: H-AKRHHGLNCAKFH-NH2 / II: H-AKRHHGLNCAKFH-NH2; disulfide I:9-II:9 (inferred); N-terminus assumed) | –
2 to 4 µg/mL | CC(C)C[C@H](NC(=O)[C@@H](N)Cc1c[nH]c2ccccc12)C(=O)N[C@@H](CC(N)=O)C(=O)N[C@@H](C)C(=O)N[C@@H](CCCCN)C(=O)N[C@@H](CCCNC(=N)N)C(=O)N[C@@H](Cc1c[nH]cn1)C(=O)N[C@@H](Cc1c[nH]cn1)C(=O)NCC(=O)N[C@@H](Cc1ccc(O)cc1)C(=O)N[C@@H](CCCCN)C(=O)N[C@@H](CSSC[C@H](NC(=O)[C@H](CCCCN)NC(=O)[C@H](Cc1ccc(O)cc1)NC(=O)CNC(=O)[C@H](Cc1c[nH]cn1)NC(=O)[C@H](Cc1c[nH]cn1)NC(=O)[C@H](CCCNC(=N)N)NC(=O)[C@H](CCCCN)NC(=O)[C@H](C)NC(=O)[C@H](CC(N)=O)NC(=O)[C@H](CC(C)C)NC(=O)[C@@H](N)Cc1c[nH]c2ccccc12)C(=O)N[C@@H](CCCCN)C(=O)N[C@@H](Cc1ccccc1)C(=O)N[C@@H](Cc1c[nH]cn1)C(N)=O)C(=O)N[C@@H](CCCCN)C(=O)N[C@@H](Cc1ccccc1)C(=O)N[C@@H](Cc1c[nH]cn1)C(N)=O [di-WP2] (I: H-WLNAKRHHGYKCKFH-NH2 / II: H-WLNAKRHHGYKCKFH-NH2; disulfide I:12-II:12 (inferred); N-terminus assumed) | –
